Laboratory results: ChEMBL document CHEMBL5303304, “EUbOPEN Chemogenomics Library - IncuCyte” (2023)

Assays:
Type in all cases: toxicity, cell-based
Fibroblast = experiment: Incucyte cell viability with human fibroblast; conditions: 10 µM, compound concentration 10 uM
U2OS = experiment: Incucyte cell viability with U2OS; conditions: human, 10 µM, compound concentration 10 uM
HEK-293T = experiment: Incucyte cell viability with HEK293T; conditions: human, 10 µM, compound concentration 10 uM
Note: unitless GR value; below 1 slowed growth and below 0 cell loss.

Compound	Growth Rate (Fibroblast; 6 h, replicate number 1)	Growth Rate (Fibroblast; 12 h, replicate number 1)	Growth Rate (Fibroblast; 12 h, replicate number 2)	Growth Rate (Fibroblast; 18 h, replicate number 1)	Growth Rate (Fibroblast; 18 h, replicate number 2)	Growth Rate (Fibroblast; 24 h, replicate number 1)	Growth Rate (Fibroblast; 24 h, replicate number 2)	Growth Rate (U2OS; 6 h, replicate number 2)	Growth Rate (U2OS; 12 h, replicate number 1)	Growth Rate (U2OS; 12 h, replicate number 2)	Growth Rate (U2OS; 18 h, replicate number 2)	Growth Rate (U2OS; 24 h, replicate number 1)	Growth Rate (U2OS; 24 h, replicate number 2)	Growth Rate (HEK-293T; 6 h, replicate number 1)	Growth Rate (HEK-293T; 6 h, replicate number 2)	Growth Rate (HEK-293T; 12 h, replicate number 1)	Growth Rate (HEK-293T; 12 h, replicate number 2)	Growth Rate (HEK-293T; 18 h, replicate number 1)	Growth Rate (HEK-293T; 18 h, replicate number 2)	Growth Rate (HEK-293T; 24 h, replicate number 1)	also measured
Cc1nccn1-c1ccc(Sc2cccc(C3(C(N)=O)CCOCC3)c2)cc1	0.34	0.28	0.59	0.33	0.72	0.45	0.71	0.9	0.88	0.71	0.78	0.88	0.81	0.3	-0.79	0.47	-0.38	0.41	-0.09	0.4	Growth Rate (Fibroblast; 0 h, replicate number 2): 0.46; Growth Rate (Fibroblast; 6 h, replicate number 2): -0.58; Growth Rate (HEK-293T; 24 h, replicate number 2): 0.1
CCN(CC)CCO[C@H]1CC[C@@]2(C)C(=CC[C@@H]3[C@@H]2CC[C@]2(C)C(=O)CC[C@@H]32)C1.Cl	0.34	-0.34	-0.05	-0.18	-0.06	-0.25	-0.11	–	–	–	–	0.91	–	0.35	0.24	0.32	0.31	0.45	0.42	0.53	Growth Rate (U2OS; 0 h, replicate number 1): 0.56; Growth Rate (U2OS; 6 h, replicate number 1): 0.77; Growth Rate (HEK-293T; 24 h, replicate number 2): 0.52
Cc1cc2nc(N3CCC(C(=O)NC4CCCC4)CC3)n(C(C)C)c2cc1C	0.17	0.26	0.74	0.48	0.7	0.4	0.78	0.39	0.79	0.47	0.67	0.95	0.8	0.3	–	0.77	–	0.97	–	0.88	Growth Rate (Fibroblast; 0 h, replicate number 1): -1; Growth Rate (U2OS; 0 h, replicate number 2): -0.6
Cc1ccc(NC(=O)c2ccc3c(c2)OCCO3)cc1NC(=O)c1ccc2nc(OCCN3CCCC3)ccc2c1	-0.21	-0.3	-0.27	-0.2	-0.22	-0.09	-0.05	0.35	-0.04	0.05	-0.04	-0.12	-0.01	-0.91	-0.96	-0.78	-0.81	-0.56	-0.61	-0.43	Growth Rate (Fibroblast; 0 h, replicate number 2): -0.85; Growth Rate (Fibroblast; 6 h, replicate number 2): -0.58; Growth Rate (U2OS; 0 h, replicate number 1): 0.21; Growth Rate (U2OS; 6 h, replicate number 1): 0.15; Growth Rate (U2OS; 18 h, replicate number 1): -0.16; Growth Rate (HEK-293T; 24 h, replicate number 2): -0.45
Cc1cc(Cn2c(N3CC4(CNC4)C3)nc3c(N4CCN(C)CC4)cc(Cl)cc32)cc(C)c1F	–	-0.99	-1	-0.95	-0.98	-0.88	-0.93	-0.99	-0.97	-0.92	-0.84	-0.79	-0.77	-0.99	-1	-0.88	-0.92	-0.67	-0.74	-0.51	Growth Rate (Fibroblast; 0 h, replicate number 1): -1; Growth Rate (Fibroblast; 6 h, replicate number 2): -1; Growth Rate (U2OS; 0 h, replicate number 1): -1; Growth Rate (U2OS; 6 h, replicate number 1): -0.98; Growth Rate (U2OS; 18 h, replicate number 1): -0.92; Growth Rate (HEK-293T; 24 h, replicate number 2): -0.56
Cc1cc(C)nc(Nc2ncc(C(=O)NCCc3c(C)[nH]c4ccccc34)cn2)c1.Cl	–	–	–	–	–	–	0.93	0.75	0.79	0.87	–	0.98	–	0.92	0.14	–	0.82	0.94	1	0.99	Growth Rate (Fibroblast; 0 h, replicate number 1): -1; Growth Rate (U2OS; 0 h, replicate number 2): 0.92; Growth Rate (U2OS; 6 h, replicate number 1): 0.56; Growth Rate (U2OS; 18 h, replicate number 1): 0.77
